pIC50: −log10 of the molar value.

In general, pIC50 refers to the negative decadic logarithm of the IC50, by convention in mol/L.

The test system of this assay is Aβ42 production. As to the kind of experiment: Quantification of Aβ peptide in culture of neurons from rat fetus brain (Aβ ELISA). The conditions noted are these: Neuron, 72 h; rat primary neuronal culture (cerebral cortex, embryonic day 18 Wistar rats); medium collected three days after addition of the compound; Aβx-42 ELISA; read-out: Aβ42 production reducing effect IC50. The class given is cell-based. The procedure, abridged: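 Primary cortical neurons from embryonic day 18 Wistar rats were cultured 4 days, then exposed to compound in Neurobasal/B27 without 2-ME, final DMSO ≤1%. After three days, medium was collected and Aβx-42 measured undiluted by sandwich ELISA.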
A general note: ELISA stands for enzyme-linked immunosorbent assay.
For the compound `CSc1cnc(C(=O)Nc2ccc(F)c([C@]34CCC[C@H]3CSC(N)=N4)c2)cn1` (single isomer, unassigned) [Example 135, N-[3-((4aR*,7aS*)-2-amino-4a,5,6,7-tetrahydro-4H-cyclopenta[d][1,3]thiazin-7a-yl)-4-fluorophenyl]-5-methylsulfanyl-pyrazine-2-carboxamide], the pIC50 was 7.82.

As to `COCC#Cc1ccc(C(=O)Nc2ccc(F)c([C@]34CCC[C@H]3CSC(N)=N4)c2)nc1` (single isomer, unassigned) [Example 136, N-[3-((4aR*,7aS*)-2-amino-4a,5,6,7-tetrahydro-4H-cyclopenta[d][1,3]thiazin-7a-yl)-4-fluorophenyl]-5-(3-methoxypropyn-1-yl)-pyridine-2-carboxamide], the negative logarithm of the IC50 (pIC50) was 7.60.

`NC1=N[C@@]2(c3cc(NC(=O)c4nccs4)ccc3F)CCC[C@H]2CS1` (single isomer, unassigned) [Example 137, N-[3-((4aR*,7aS*)-2-amino-4a,5,6,7-tetrahydro-4H-cyclopenta[d][1,3]thiazin-7a-yl)-4-fluorophenyl]-thiazole-2-carboxamide]: the pIC50 is 7.33.

As to `NC1=N[C@@]2(c3cc(NC(=O)c4ccc(C(F)F)cn4)ccc3F)CCC[C@H]2CS1` (single isomer, unassigned) [Example 141, N-[3-((4aR*,7aS*)-2-amino-4a,5,6,7-tetrahydro-4H-cyclopenta[d][1,3]thiazin-7a-yl)-4-fluorophenyl]-5-difluoromethylpyridine-2-carboxamide], the pIC50 is 7.80.

With `NC1=N[C@@]2(c3cc(NC(=O)c4ccc(Br)cn4)ccc3F)CCOC[C@H]2CS1` (single isomer, unassigned) [Example 142, N-[3-((4aS*,8aS*)-2-amino-4a,5,7,8-tetrahydro-4H-6-oxa-3-thia-1-azanaphthalen-8a-yl)-4-fluorophenyl]-5-bromopyridine-2-carboxamide], the negative-log IC50 (pIC50) was 8.00.

As to `NC1=N[C@@]2(c3cc(NC(=O)c4ncc(F)cc4F)ccc3F)CCC[C@H]2CS1` (single isomer, unassigned) [Example 168, N-[3-((4aR*,7aS*)-2-amino-4a,5,6,7-tetrahydro-4H-cyclopenta[d][1,3]thiazin-7a-yl)-4-fluorophenyl]-3,5-difluoropyridine-2-carboxamide], the pIC50 is 7.80.

With `NC1=N[C@@]2(c3cc(NC(=O)c4ccc(C(F)(F)F)cn4)ccc3F)CCC[C@H]2CS1` (single isomer, unassigned) [Example 169, N-[3-((4aR*,7aS*)-2-amino-4a,5,6,7-tetrahydro-4H-cyclopenta[d][1,3]thiazin-7a-yl)-4-fluorophenyl]-5-trifluoromethylpyridine-2-carboxamide], the pIC50 was 7.57.

As for `NC1=N[C@@]2(c3cc(NC(=O)c4ncccc4C(F)(F)F)ccc3F)CCC[C@H]2CS1` (single isomer, unassigned) [Example 170, N-[3-((4aR*,7aS*)-2-amino-4a,5,6,7-tetrahydro-4H-cyclopenta[d][1,3]thiazin-7a-yl)-4-fluorophenyl]-3-trifluoromethylpyridine 2-carboxamide], the pIC50 is 6.68.

As for `NC1=N[C@@]2(c3cc(NC(=O)c4ncccc4F)ccc3F)CCC[C@H]2CS1` (single isomer, unassigned) [Example 171, N-[3-((4aR*,7aS*)-2-amino-4a,5,6,7-tetrahydro-4H-cyclopenta[d][1,3]thiazin-7a-yl)-4-fluorophenyl]-3-fluoropyridine-2-carboxamide], the pIC50 was 7.05.

As for `NC1=N[C@@]2(c3cc(NC(=O)c4ccc(Br)cn4)ccc3F)CCC[C@H]2CS1` (single isomer, unassigned) [Example 172, N-[3-((4aR*,7aS*)-2-amino-4a,5,6,7-tetrahydro-4H-cyclopenta[d][1,3]thiazin-7a-yl)-4-fluorophenyl]-5-bromopyridine-2-carboxamide], the negative-log IC50 (pIC50) was 8.15.

In the case of `NC1=N[C@@]2(c3cc(NC(=O)c4ncccc4Br)ccc3F)CCC[C@H]2CS1` (single isomer, unassigned) [Example 173, N-[3-((4aR*,7aS*)-2-amino-4a,5,6,7-tetrahydro-4H-cyclopenta[d][1,3]thiazin-7a-yl)-4-fluorophenyl]-3-bromopyridine-2-carboxamide], the pIC50 is 7.14.

Turning to `COc1ccc(C(=O)Nc2ccc(F)c([C@]34CCC[C@H]3CSC(N)=N4)c2)nc1` (single isomer, unassigned) [Example 174, N-[3-((4aR*,7aS*)-2-amino-4a,5,6,7-tetrahydro-4H-cyclopenta[d][1,3]thiazin-7a-yl)-4-fluorophenyl]-5-methoxypyridine-2-carboxamide], the pIC50 is 7.96.

As to `NC1=N[C@@]2(c3cc(NC(=O)c4ccc(OC(F)F)cn4)ccc3F)CCC[C@H]2CS1` (single isomer, unassigned) [Example 175, N-[3-((4aR*,7aS*)-2-amino-4a,5,6,7-tetrahydro-4H-cyclopenta[d][1,3]thiazin-7a-yl)-4-fluorophenyl]-5-difluoromethoxypyridine-2-carboxamide], the negative-log IC50 (pIC50) is 8.05.

As for `NC1=N[C@@]2(c3cc(NC(=O)c4ncc(Br)cn4)ccc3F)CCC[C@H]2CS1` (single isomer, unassigned) [Example 176, N-[3-((4aR*,7aS*)-2-amino-4a,5,6,7-tetrahydro-4H-cyclopenta[d][1,3]thiazin-7a-yl)-4-fluorophenyl]-5-bromopyrimidine-2-carboxamide], the negative-log IC50 (pIC50) is 8.00.

As to `COc1cnc(C(=O)Nc2ccc(F)c([C@]34CCC[C@H]3CSC(N)=N4)c2)cn1` (single isomer, unassigned) [Example 177, N-[3-((4aR*,7aS*)-2-amino-4a,5,6,7-tetrahydro-4H-cyclopenta[d][1,3]thiazin-7a-yl)-4-fluorophenyl]-5-methoxypyrazine-2-carboxamide], the pIC50 is 7.74.

As to `NC1=N[C@@]2(c3cc(NC(=O)c4cnc(OCC(F)(F)F)cn4)ccc3F)CCC[C@H]2CS1` (single isomer, unassigned) [Example 178, N-[3-((4aR*,7aS*)-2-amino-4a,5,6,7-tetrahydro-4H-cyclopenta[d][1,3]thiazin-7a-yl)-4-fluorophenyl]-5-(2,2,2-trifluoroethoxy)-pyrazine-2-carboxamide], the pIC50 is 7.36.

For the compound `NC1=N[C@@]2(c3cc(NC(=O)c4ccc(OCC(F)(F)F)cn4)ccc3F)CCC[C@H]2CS1` (single isomer, unassigned) [Example 179, N-[3-((4aR*,7aS*)-2-amino-4a,5,6,7-tetrahydro-4H-cyclopenta[d][1,3]thiazin-7a-yl)-4-fluorophenyl]-5-(2,2,2-trifluoroethoxy)-pyridine-2-carboxamide], the pIC50 was 7.01.

For `NC1=N[C@@]2(c3cc(NC(=O)c4ncc(Cl)cc4Cl)ccc3F)CCC[C@H]2CS1` (single isomer, unassigned) [Example 180, N-[3-((4aR*,7aS*)-2-amino-4a,5,6,7-tetrahydro-4H-cyclopenta[d][1,3]thiazin-7a-yl)-4-fluorophenyl]-3,5-dichloropyridine-2-carboxamide], the pIC50 is 8.52.

For the compound `NC1=N[C@@]2(c3cc(NC(=O)c4cnc(OCC(F)F)cn4)ccc3F)CCC[C@H]2CS1` (single isomer, unassigned) [Example 181, N-[3-((4aR*,7aS*)-2-amino-4a,5,6,7-tetrahydro-4H-cyclopenta[d][1,3]thiazin-7a-yl)-4-fluorophenyl]-5-(2,2-difluoroethoxy)-pyrazine-2-carboxamide], the pIC50 is 7.33.

With `NC1=N[C@@]2(c3cc(NC(=O)c4ccc(OCC(F)F)cn4)ccc3F)CCC[C@H]2CS1` (single isomer, unassigned) [Example 182, N-[3-((4aR*,7aS*)-2-amino-4a,5,6,7-tetrahydro-4H-cyclopenta[d][1,3]thiazin-7a-yl)-4-fluorophenyl]-5-(2,2-difluoroethoxy)-pyridine-2-carboxamide], the negative-log IC50 (pIC50) is 7.05.

On to `NC1=N[C@@]2(c3cc(NC(=O)c4cnc(OCCF)cn4)ccc3F)CCC[C@H]2CS1` (single isomer, unassigned) [Example 183, N-[3-((4aR*,7aS*)-2-amino-4a,5,6,7-tetrahydro-4H-cyclopenta[d][1,3]thiazin-7a-yl)-4-fluorophenyl]-5-(2-fluoroethoxy)-pyrazine-2-carboxamide], for which the negative logarithm of the IC50 (pIC50) is 7.55.

Turning to `NC1=N[C@@]2(c3cc(NC(=O)c4ncc(C(F)(F)F)cc4Cl)ccc3F)CCC[C@H]2CS1` (single isomer, unassigned) [Example 184, N-[3-((4aR*,7aS*)-2-amino-4a,5,6,7-tetrahydro-4H-cyclopenta[d][1,3]thiazin-7a-yl)-4-fluorophenyl]-3-chloro-5-trifluoromethyl-pyridine-2-carboxamide], the pIC50 is 7.89.

With `NC1=N[C@@]2(c3cc(NC(=O)c4ncc(Cl)cc4Cl)ccc3F)CCOC[C@H]2CS1` (single isomer, unassigned) [Example 185, N-[3-((4aS*,8aS*)-2-amino-4a,5,7,8-tetrahydro-4H-6-oxa-3-thia-1-azanaphthalen-8a-yl)-fluorophenyl]-3,5-dichloropyridine-2-carboxamide], the pIC50 is 8.00.

Regarding `NC1=N[C@@]2(c3cc(NC(=O)c4ccc(C(F)(F)F)cn4)ccc3F)CCOC[C@H]2CS1` (single isomer, unassigned) [Example 186, N-[3-((4aS*,8aS*)-2-amino-4a,5,7,8-tetrahydro-4H-6-oxa-3-thia-1-azanaphthalen-8a-yl)-fluorophenyl]-5-trifluoromethylpyridine-2-carboxamide], the pIC50 is 7.52.

For `NC1=N[C@@]2(c3cc(NC(=O)c4ccc(F)cn4)ccc3F)CCOC[C@H]2CS1` (single isomer, unassigned) [Example 187, N-[3-((4aS*,8aS*)-2-amino-4a,5,7,8-tetrahydro-4H-6-oxa-3-thia-1-azanaphthalen-8a-yl)-4-fluorophenyl]-5-fluoropyridine-2-carboxamide], the negative-log IC50 (pIC50) is 7.27.

These data come from patent publication US20100317850A1 (priority 2008, published 2010).
